Where “and” joins values, the source holds several entries; their conditions need not be identical. Equal entries are not always repeated. Entries after “also recorded” stand apart in the source; their conditions may differ.
Experiments:
[1] = Single dose study: plasma pharmacokinetics after a single oral dose; assay type: in vivo, human; conditions: for AUC(0-48): mean (SD)
Description: (§1) Two clinical studies were carried out: a single dose study and a repeat dose study. Both studies were parallel-group, double-blind, dose-rising, and placebo-controlled in design.
(§2) In each group, 1 subject received placebo. […] In each group, 2 subjects received placebo.
(§3) Healthy young men, aged 18-45 years.
(§4) In the repeated dose study, an aqueous 0.5% methylcellulose suspension (Methocel A4M Premium, The Dow Chemical Company) was used. In both studies, the study medication was taken orally as a drink, followed by 50 ml of tap water.
(§5) The following procedures were done: • Safety assesment: laboratory assessments (routine biochemistry and urinalysis), physical examination, 12-lead ECO, ambulatory ECG, pulmonary function testing (FEV1), vital signs (semi-recumbent in the single dose study; semi-recumbent and standing in the repeat dose study).
(§6) Plasma samples were assayed for IB-MECA using LC/MS/MS. The lower limit of quantification (LLOQ) was 0.1 ng/mL. Intra-assay coefficients of variation (CV) were <5.0% and inter-assay CVs were <9.4%.
(§7) Maximum concentration (Cmax) and time to maximum concentration (tmax) were observed values. Other pharmacokinetic parameters (half-life, to AUC; and clearance, CL/F) were calculated by non-compartmental methods using WinNonlin® software (version 3.0, Pharsight, Mountain View, Calif., US). Accumulation indices of Cmax and AUC were calculated as ratio of values at steady state (Day 7) to the values on Day 1.

[2] = system: various tumour cell types; conditions: arresting cell growth at GO/GI phase; Fishman et al, 2000a; cited from earlier work
[3] = Single dose study: safety and tolerability; assay type: in vivo, human; conditions: for safety and tolerability: single (daily) oral dose up to 5 mg
Description: as §1, §2, §3, §4, §5
(§8) Data from all subjects who received IB-MECA were included in the analysis of safety and tolerability (adverse events and laboratory safety variables). Numerical data and parameters were summarised using means or medians, and other descriptive statistics, according to the type and distribution of the data.

[4] = Repeat dose study: plasma pharmacokinetics on Days 1 and 7 of 12-hourly oral dosing; assay type: in vivo, human
Description: as §1, §2, §3, §4, §5, §6, §7

[5] = system: syngeneic (melanoma, colon carcinoma) and xenograft (colon and prostate carcinoma) mouse models; conditions: cited from earlier work
[6] = Water solubility; assay type: physicochemical
[7] = system: neutrophils; conditions: cited from earlier work
[8] = Repeat dose study: safety and tolerability; assay type: in vivo, human; conditions: for safety and tolerability: twice daily (12-hourly) oral dose up to 4 mg
Description: as §1, §2, §3, §4, §5, §8

[9] = 2 mg oral every 12 h, Day 1, mean (SD), n = 5
[10] = 2 mg oral every 12 h, Day 7, mean (SD), n = 5
[11] = 3 mg oral every 12 h, Day 1, mean (SD), n = 5
[12] = 3 mg oral every 12 h, Day 7, mean (SD), n = 5
[13] = 4 mg oral every 12 h, Day 1, mean (SD), n = 5
[14] = 4 mg oral every 12 h, Day 7, mean (SD), n = 5
[15] = 5 mg oral every 12 h, Day 1, mean (SD), n = 5
[16] = 5 mg oral every 12 h, Day 7, mean (SD), n = 5

With `CNC(=O)[C@H]1O[C@@H](n2cnc3c(NCc4cccc(I)c4)ncnc32)[C@H](O)[C@@H]1O` [IB-MECA, methyl 1-[N6-(3-iodobenzyl)-adenin-9-yl]-β-D-ibofuronamide] the “plasma level (Cmax) at safe doses” value ([1]; single daily dose of 5 mg and twice daily dose of 4 mg) was less than 80 ng/mL, the “AUC(0-48)” value ([1]; single oral dose 1 mg, n = 4) was 220.7 ng·h/mL and the tmax ([1]; single oral dose 1 mg, median (range), n = 4) was 1 (1-2) h. For the same molecule, the “AUC(0-48)” value ([1]; single oral dose 5 mg, n = 4) was 872.3 ng·h/mL, the tmax ([1]; single oral dose 5 mg, median (range), n = 4) was 1 (1-2) h and the “AUC(0-48)” value ([1]; single oral dose 10 mg, n = 4) was 1780.0 ng·h/mL. The tmax ([1]; single oral dose 10 mg, median (range), n = 4) was 1 (1-2) h, the inter-subject variability ([1]; single oral doses) was “low” and the “pharmacokinetics (linearity)” value ([1]; single oral doses 1, 5, 10 mg) was “linear”. The tmax ([1]; single oral doses 1, 5, 10 mg, overall range) was 1 to 2 h, the “apparent plasma clearance (CL/F)” value ([1]; single oral doses, independent of dose) was 47 L/h and the “effect on tumour cell growth” value [2] was “cytostatic effect”. The “blood level correlated with side effects” value ([3]; healthy adults, oral dosing) was “exceeding 160 nM and > 80 ng/ml”, the safety and tolerability [3] was “safe and well tolerated” and the safety and tolerability ([3]; listed as 13-MCA) was “well tolerated”. For the same molecule, the side effects ([3]; single daily oral dose 10 mg) was “some cardiovascular-related side effects”, the “change in resting heart rate” value ([3]; single dose 5 mg, four subjects) was “small increase” and the “adverse events within 12 h of dosing (number)” value (“adverse events within 12 h” below) ([3]; single dose of 10 mg) was 8. The “safety tests of blood and urine” value ([3]; single dose study) was “no clinically significant changes”, the “change in blood pressure” value ([3]; single dose study, not measured standing) was “In no subject was there a significant change” and the “AUC(0-12)” value [4, 9] was 155.2 (39.1) ng · h/mL. For the same molecule, the “AUC(inf)” value [4, 9] was 207.4 (52.0) ng · h/mL, the tmax ([4]; 2 mg oral every 12 h, Day 1, median (range), n = 5) was 2 (1-4) h and the “AUC(0-12)” value [4, 10] was 242.4 (41.4) ng · h/mL. The “AUC(0-24)” value [4, 10] was 346.3 (64.0) ng · h/mL, the tmax ([4]; 2 mg oral every 12 h, Day 7, median (range), n = 5) was 2 (1-2) h and the “AUC(0-12)” value [4, 11] was 304.5 (19.5) ng · h/mL. For the same molecule, the “AUC(inf)” value [4, 11] was 423.5 (27.5) ng · h/mL, the tmax ([4]; 3 mg oral every 12 h, Day 1, median (range), n = 5) was 2 (1-2) h and the “AUC(0-12)” value [4, 12] was 341.6 (38.1) ng · h/mL. The “AUC(0-24)” value [4, 12] was 512.1 (74.1) ng · h/mL, the tmax ([4]; 3 mg oral every 12 h, Day 7, median (range), n = 5) was 1 (1-2) h and the “AUC(0-12)” value [4, 13] was 297.0 (57.2) ng · h/mL. For the same molecule, the “AUC(inf)” value [4, 13] was 400.2 (85.7) ng · h/mL, the tmax ([4]; 4 mg oral every 12 h, Day 1, median (range), n = 5) was 2 (1-2) h and the “AUC(0-12)” value [4, 14] was 458.3 (54.8) ng · h/mL. For the same molecule, the “AUC(0-24)” value [4, 14] was 640.3 (73.7) ng · h/mL, the tmax ([4]; 4 mg oral every 12 h, Day 7, median (range), n = 5) was 1 (1-2) h and the “AUC(0-12)” value [4, 15] was 461.6 (157.4) ng · h/mL. For the same molecule, the “AUC(inf)” value [4, 15] was 596.1 (196.6) ng · h/mL, the tmax ([4]; 5 mg oral every 12 h, Day 1, median (range), n = 5) was 2 (1-2) h and the “AUC(0-12)” value [4, 16] was 601.0 (163.6) ng · h/mL. The “AUC(0-24)” value [4, 16] was 818.4 (214.0) ng · h/mL, the tmax ([4]; 5 mg oral every 12 h, Day 7, median (range), n = 5) was 2 (2-2) h and the “dose proportionality of plasma concentrations” value ([4]; Day 1 and steady state (Day 7)) was “dose proportional”. The tmax ([4]; repeated oral doses 2-5 mg every 12 h, overall) was 1 to 2 h, the “time at which steady state was reached” value ([4]; repeated oral doses every 12 h) was no more than 3 days and the “change of pharmacokinetics after repeated dosing” value ([4]; repeated oral doses every 12 h for 7 days) was “did not change”. The “Half-life at steady state” value ([4]; repeated oral doses, Day 7, independent of dose) was 9 to 10 h, the “apparent plasma clearance (CL/F)” value ([4]; repeated oral doses, independent of dose) was 5 to 10 L/h and the colon carcinoma growth ([5]; oral administration, nude mice) was “inhibits colon carcinoma growth”. The development of tumours ([5]; orally administered, syngeneic and xenograft mouse models) was “inhibits the development of tumours”, the water solubility [6] was “not water soluble” and the myelotoxicity ([7]; administered with chemotherapy) was “protects against myelotoxicity”. For the same molecule, the neutrophil recovery ([7]; oral administration, after cytotoxic drug therapy) was “stimulates neutrophil recovery”, the production of neutrophils ([7]; oral, mice, via an increase in G-CSF) was “stimulates the production of neutrophils” and the adverse events ([8]; 5 mg oral twice daily) was “some cardiovascular-related adverse events; also recorded: headache and drowsiness were most common”. The “safety tests of blood and urine” value ([8]; repeat dose study) was “no clinically significant changes”, the heart rate ([8]; repeat dose study, Day 1) was “dose-related increase” and the heart rate effect ([8]; repeat dose study, Day 7 versus Day 1) was “clearly smaller”. The “adverse events within 12 h” value ([8]; repeated doses of 5 mg 12-hourly) was 13, the “adverse events within 12 h” value ([8]; repeated doses of up to 4 mg 12-hourly) was 2 and the safety and tolerability [8] was “safe and well tolerated”. For the same molecule, the safety and tolerability ([8]; listed as 13-MCA) was “well tolerated” and the maximum tolerated dose ([8]; twice-daily therapeutic regimen) was 4 mg.

From US20050101560A1, “Method of treating an individual with methyl 1-[N6-(3-iodobenzyl)-adenin-9-yl] beta-D-ibofuronamide” (CAN-FITE BIOPHARMA LTD., priority 2003, published 2005)
